Data published in patent US20090176817A1, “Method of Treatment of Diarrhea-Predominant Irritable Bowel Syndrome in a Subject” (priority 2005, published 2009).
Marks after values point to notes of the source that are not given here.

Experiments:
[1] = Study S.241.1.110: pharmacokinetics in renal impairment, 2 mg TID; details: for AUC(0-τ) / Cmax / T½ / Tmax / Cmin: cilansetron 2 mg TID; for AUC(0-τ) / Cmax / T½ / Cmin: mean (%CV); for Tmax: median; for Cmin: Day 6 morning predose value
Protocol: The effect of renal impairment on the pharmacokinetics of cilansetron was evaluated in a study excluding subjects with end-stage renal disease, and utilizing a single-center, open-label, multiple-dose, parallel group study in 13 male and 9 female subjects, aged 33-74 years. […] Healthy subjects were matched to renally-impaired subjects with respect to age, weight, gender, and smoking status. All subjects received oral cilansetron 2 mg TID on Days 1 to 5, and a single dose on the morning of Day 6. Blood samples for measurement of plasma pharmacokinetics of cilansetron and its 4-hydroxy metabolites were collected up to 24 hours following dosing on Day 6, and log-transformed pharmacokinetic parameters for these analytes were statistically compared between study groups. Serum concentrations of unbound cilansetron and its 4-hydroxy metabolites were also measured prior to dosing and at 1 and 1.5 hours postdose on Day 6.

[2] = Study S.241.1.107: pharmacokinetics in hepatic impairment, 8 mg TID; details: for AUC(0-τ): AUC(0-8); for AUC(0-τ) / Cmax / T½: arith. mean (%CV); for Tmax: median
Protocol: The effect of hepatic impairment on the pharmacokinetics of cilansetron was evaluated in a multiple-dose, parallel group study in 14 healthy and 14 moderately to severely hepatically impaired male and female subjects, aged 41-70 years. Impaired subjects (Child-Pugh score 7 to 11) were matched to healthy subjects by age (±2 years), sex, menstrual status, and smoking history status. All subjects received oral cilansetron 8 mg TID on Days 1 to 5, and a single dose on the morning of Day 6. […] Blood samples were also collected at predose on Day 1, and at predose, 1 hour and 1.5 hours postdose on Day 6, for measurement of cilansetron protein binding in serum.

[3] = Study S.241.1.110: ex vivo protein binding in serum, healthy and renally impaired; details: for Fraction unbound ratio All Renal Groups Combined:Healthy / Fraction unbound ratio Mild:Healthy / Fraction unbound ratio Moderate:Healthy / Fraction unbound ratio Severe:Healthy: ratio (90% CI)
Protocol: The ex vivo protein binding of cilansetron and its 4-hydroxy metabolites has been measured in serum samples collected in a multiple-dose study in healthy and renally impaired male and female subjects, aged 33-74 years. […] Healthy subjects were matched to renally-impaired subjects with respect to age, weight, gender, and smoking status. All subjects received oral cilansetron 2 mg TID on Days 1 to 5, and a single dose on the morning of Day 6.

[4] = test system: diarrhea-predominant IBS subjects; assay: Study S241.3.011: interruption of activities assessment; format: in vivo, human
Excerpt: Studies S24 1.3.OO6, S24 1.3.0 1 1, and S24 1.3.009 used the following efficacy measurements: • The subjects answered the following three questions with “yes” or “no” using a phone diary at the end of each week: • a) During the last week, did you experience adequate relief of your IBS symptoms, such as abdominal pain, abdominal discomfort, abnormal bowel habits? • b) During the last week, did you experience adequate relief of your abdominal pain and/or discomfort? • c) During the last week, did you experience adequate relief of your abnormal bowel habits? • The subjects rated the following symptoms using the phone diary at the end of each day: • abdominal pain/discomfort (five-point scale); • stool consistency (seven-point Bristol Stool Scale); • stool frequency (number of bowel movements each day); • urgency (five-point scale); • straining (yes or no); • feeling of incomplete defecation (yes or no); • bloating or feeling of abdominal distension (five-point scale). • In Studies S241 A006 and S241.3.009, subjects completed the IBS-QOL Survey at Baseline (Day 1) and at the end of treatment. In Study S24 1.3.0 1 1, subjects completed the IBS-QOL Survey at Baseline (Day 1), at the end of the three-month treatment period, and at the end of rerandomized treatment.
Other secondary efficacy parameters for all three studies included: • Responder rate for the weekly diary questions on adequate relief at each month, where a responder for a month (monthly responder) was defined as a subject who answered the weekly question with “yes” at least twice for that month. The responder rate was the percentage of responders within a treatment group. The all-month responder rate for the weekly diary questions on adequate relief was also evaluated, where an all-month responder was defined as a subject who answered the weekly question with “yes” at least twice for each month. The all-month responder rate was the percentage of all-month responders within a treatment group; • Adequate relief rate for the weekly diary questions was calculated for each subject as the number of weekly assessments with adequate relief (“yes”) divided by the total number of weekly assessments; • Percentage of subjects with adequate relief for the weekly diary questions at each week; • Daily diary questions regarding abdominal pain/discomfort (five-point scale), stool consistency (seven-point scale), stool frequency (number of bowel movements each day), straining (yes or no), urgency (five-point scale), feeling of incomplete evacuation (yes or no), and bloating or feeling of abdominal distention (five-point scale); • QOL data assessed by the IBS-QOL questionnaire; and • Question to determine the interruption of activities.

[5] = moderate renal impairment, Day 6
[6] = geometric LS mean ratio impaired/healthy, cilansetron 8 mg TID oral
[7] = healthy, cilansetron 8 mg TID oral
[8] = hepatically impaired, cilansetron 8 mg TID oral

SMILES: Cc1nccn1CC1CCc2c(c3cccc4c3n2CC[C@@H]4O)C1=O (stereo partly drawn) [(4S)-hydroxy cilansetron]
- Plasma Conc. ([1]; Day 6 1 h, Healthy): 1.60 (26) ng/mL
- Plasma Conc. ([1]; Day 6 1 h, Mild): 2.26 (43) ng/mL
- Plasma Conc. ([1]; Day 6 1 h, Moderate): 2.74 (58) ng/mL
- Plasma Conc. ([1]; Day 6 1 h, Severe): 8.32 (40) ng/mL
- AUC(0-τ) ratio Mild/Healthy ([1]; Day 6, geometric LS mean ratio (90% CI)): 119 (85, 168) %
- AUC(0-τ) ratio Moderate/Healthy ([1]; Day 6, ratio (90% CI)): 174 (120, 251)* %
- AUC(0-τ) ratio Renal Combined/Healthy ([1]; Day 6, ratio (90% CI)): 219 (168, 286)* %
- AUC(0-τ) ratio Severe/Healthy ([1]; Day 6, ratio (90% CI)): 507 (351, 733)* %
- Cmax ratio Mild/Healthy ([1]; Day 6, ratio (90% CI)): 129 (91, 181) %
- Cmax ratio Moderate/Healthy ([1]; Day 6, ratio (90% CI)): 171 (118, 248)* %
- Cmax ratio Renal Combined/Healthy ([1]; Day 6, ratio (90% CI)): 220 (168, 288)* %
- Cmax ratio Severe/Healthy ([1]; Day 6, ratio (90% CI)): 485 (335, 702)* %
- T½ ratio Mild/Healthy ([1]; Day 6, ratio (90% CI)): 108 (81, 144) %
- T½ ratio Moderate/Healthy ([1]; Day 6, ratio (90% CI)): 142 (104, 193) %
- T½ ratio Renal Combined/Healthy ([1]; Day 6, ratio (90% CI)): 142 (113, 177)* %
- T½ ratio Severe/Healthy ([1]; Day 6, ratio (90% CI)): 186 (136, 254)* %
- Plasma Conc. ([1]; Day 6 […], Healthy): 1.68 (25) ng/mL
- Plasma Conc. ([1]; Day 6 […], Mild): 1.91 (35) ng/mL
- Plasma Conc. ([1]; Day 6 […], Moderate): 2.98 (56) ng/mL
- Plasma Conc. ([1]; Day 6 […], Severe): 8.57 (32) ng/mL
- AUC(0-τ) ([1]; healthy subjects, Day 6): 12.9 (25) ng · h/mL
- Cmax ([1]; healthy subjects, Day 6): 2.15 (21) ng/mL
- T½ ([1]; healthy subjects, Day 6): 8.68 (29) h
- Tmax ([1]; healthy subjects, Day 6): 2.00 h
- Cmin ([1]; healthy subjects): 1.24 (31) ng/mL
- Mean AUC(0-τ) increase vs healthy ([1]; mild impairment): 19%
- Mean Cmax increase vs healthy ([1]; mild impairment): 29%
- AUC(0-τ) ([1]; mild renal impairment, Day 6): 15.3 (25) ng · h/mL
- Cmax ([1]; mild renal impairment, Day 6): 2.77 (22) ng/mL
- T½ ([1]; mild renal impairment, Day 6): 9.31 (24) h
- Tmax ([1]; mild renal impairment, Day 6): 2.00 h
- Cmin ([1]; mild renal impairment): 1.76 (38) ng/mL
- Mean AUC(0-τ) increase vs healthy ([1]; moderate impairment): 74%
- Mean Cmax increase vs healthy ([1]; moderate impairment): 71%
- AUC(0-τ) [1, 5]: 25.3 (64) ng · h/mL
- Cmax [1, 5]: 4.10 (60) ng/mL
- T½ [1, 5]: 12.4 (28) h
- Tmax [1, 5]: 1.75 h
- Cmin ([1]; moderate renal impairment): 2.71 (72) ng/mL
- Mean AUC(0-τ) increase vs healthy ([1]; severe impairment): 407%
- Mean Cmax increase vs healthy ([1]; severe impairment): 385%
- AUC(0-τ) ([1]; severe renal impairment, Day 6): 67.0 (35) ng · h/mL
- Cmax ([1]; severe renal impairment, Day 6): 11.2 (46) ng/mL
- T½ ([1]; severe renal impairment, Day 6): 16.7 (45) h
- Tmax ([1]; severe renal impairment, Day 6): 1.40 h
- Cmin ([1]; severe renal impairment): 7.00 (35) ng/mL
- AUC(0-τ) Ratio [2, 6]: 0.68
- Cmax Ratio [2, 6]: 0.64
- AUC(0-τ), Geom. LS Mean [2, 7]: 42.5 ng·h/mL
- Cmax, Geom. LS Mean [2, 7]: 6.89 ng/mL
- AUC(0-τ) [2, 7]: 47.9 (36) ng · h/mL
- Cmax [2, 7]: 7.57 (33) ng/mL
- T½ [2, 7]: 7.65 (17) h
- Tmax [2, 7]: 3.00 h
- AUC(0-τ), Geom. LS Mean [2, 8]: 29.1 ng·h/mL
- Cmax, Geom. LS Mean [2, 8]: 4.39 ng/mL
- AUC(0-τ) [2, 8]: 33.8 (57) ng · h/mL
- Cmax [2, 8]: 5.17 (59) ng/mL
- T½ [2, 8]: 9.41 (30) h
- Tmax [2, 8]: 3.00 h
- AUC(0-τ) decrease with hepatic impairment ([2]; in vivo): 32%
- Cmax decrease with hepatic impairment ([2]; in vivo): 36%
- Fraction unbound ratio All Renal Groups Combined:Healthy ([3]; 1 h): 102 (86, 121) %
- Fraction unbound ratio Mild:Healthy ([3]; 1 h): 81 (65, 101) %
- Fraction unbound ratio Moderate:Healthy ([3]; 1 h): 124 (98, 156) %
- Fraction unbound ratio Severe:Healthy ([3]; 1 h): 106 (84, 133) %
- Fraction Unbound in Serum ([3]; Day 6 1 h, Healthy): 53.6 (20) %
- Fraction Unbound in Serum ([3]; Day 6 1 h, Mild): 42.8 (7) %
- Fraction Unbound in Serum ([3]; Day 6 1 h, Moderate): 69.3 (45) %
- Fraction Unbound in Serum ([3]; Day 6 1 h, Severe): 56.1 (15) %
- Fraction Unbound in Serum ([3]; Day 6 […], Healthy): 58.0 (21) %
- Fraction Unbound in Serum ([3]; Day 6 […], Mild): 46.3 (11) %
- Fraction Unbound in Serum ([3]; Day 6 […], Moderate): 57.4 (28) %
- Fraction Unbound in Serum ([3]; Day 6 […], Severe): 42.4 (9) %
- Fraction Unbound in Serum ([3]; Day 6 predose, Healthy): 51.9 (24) %
- Fraction Unbound in Serum ([3]; Day 6 predose, Mild): 48.9 (40) %
- Fraction Unbound in Serum ([3]; Day 6 predose, Moderate): 54.0 (26) %
- Fraction Unbound in Serum ([3]; Day 6 predose, Severe): 51.4 (30) %
- Fraction unbound ratio All Renal Groups Combined:Healthy ([3]; […]): 84 (72, 99) %
- Fraction unbound ratio Mild:Healthy ([3]; […]): 81 (67, 99) %
- Fraction unbound ratio Moderate:Healthy ([3]; […]): 99 (80, 123) %
- Fraction unbound ratio Severe:Healthy ([3]; […]): 75 (60, 93)^b %
- Protein bound on average ([3]; healthy subjects): 42.0-48.1%
- Fraction unbound ratio All Renal Groups Combined:Healthy ([3]; predose): 98 (79, 121) %
- Fraction unbound ratio Mild:Healthy ([3]; predose): 91 (69, 121) %
- Fraction unbound ratio Moderate:Healthy ([3]; predose): 104 (77, 140) %
- Fraction unbound ratio Severe:Healthy ([3]; predose): 98 (73, 133) %
- Plasma protein bound ([3]; therapeutic concentration range): 42-48%

SMILES: Cc1nccn1C[C@H]1CCc2c(c3cccc4c3n2CCC4)C1=O [Cilansetron, (R)-(−)-4,5,6,8,9,10-hexahydro-10-[(2-methyl-1H-imidazol-1-yl)methyl]-11H-pyrido-[3,2,1-jk]-carbazol-11-one]
- Subjects “not at all or rarely” bothered, rerandomization Endpoint ([4]; C/C): 54%
- Subjects “not at all or rarely” bothered, rerandomization Endpoint ([4]; C/P): 37%
- Subjects “not at all or rarely” bothered by IBS symptoms ([4]; Endpoint, 3-month period): 46%
- Subjects “not at all or rarely” bothered, rerandomization Endpoint ([4]; P/C): 50%
